Consider one substance from patent US11834698B2, “Process for determining enzyme activity in a cell by activity-based reporter gene technology (ABRGT)” (INDIAN INSTITUTE OF SCIENCE EDUCATION AND RESEARCH, priority 2018, dated 2023).

Values joined by “and” are separate entries in the source; they are usually repeats but may differ in a detail not shown here. Identical values can stand only once.

One experiment has as its system Jurkat cell lysate. As to the kind of experiment: In-gel fluorescence assay of off-target labelling in Jurkat cells. It is filed as cell-based. The settings on record: Jurkat cell lysate 2 μg/μL, probe 1 μM. As for the experimental part: FIG. 5 depicts cellular off-target labelling of the probe 1 shown in Jurkat cells 2.5 million Jurkat cells were incubated with 1 μM probe 1 in the (b) presence or (c) the absence of STS (1 μM) for 6 h. Cells are incubated (a) without and (d) with the probe 1 and STS. Cells comprising labelled enzymes were lysed and analyzed by 12% SDS-PAGE followed by scanning for rhodamine fluorescence (Ex: 561 nm, Em: 605 nm) with a flat-bed laser scanner.
To rule out that the obtained FRET signal in [FIG. 2b (i)] is not because of random physical interaction between GFPspark and rhodamine dye, MCF-7 cells were transfected with a plasmid encoding for enhanced green fluorescent protein (EGFP). EGFP transfected MCF-7 cells were treated with STS (1 μM) for 4 h, labelled with the probe 1. […] In-gel fluorescence assay was also performed to validate the multiple off-targets labelling of probe 1 which has also been shown in the previous reports. […] The calculated FRET efficiency for (n=15 cells) is 35±1%. […] Caspase-3 activation was also monitored using probe 2 as fABP which is different from probe 1 in terms of peptide recognition sequence; DEVD in exchange for VAD as DEVD peptide sequence is more specific for caspases as compared to VAD. Probe 2 yielded a similar pattern of fluorescence signal in GFPspark, FRET and Rh channel as that of probe 1 [FIG. 7(a)]. The calculated FRET efficiency was 35% [FIG. 7(b)]. […]

Experiment [1] has as its system enhanced green fluorescent protein (EGFP). The experiment can be described thus: EGFP control for random GFP-rhodamine interaction in MCF-7 cells. Type of experiment: cell-based. The settings on record: MCF-7, EGFP plasmid, STS 1 μM 4 h, labelled with probe 1. As for the experimental part: FIG. 2 depicts (a) a schematic representation of AbRGT in determining the specific activation of caspase-3 GFPspark tagged enzyme by FRET effect utilizing Rh-VAD-FMK (probe 1). (b) The fluorescence signal was collected in GFP, FRET and Rhodamine (Rh) channels. MCF-7 cells transfected with caspase-3 GFPspark treated with (i) 1 μM STS for 4 h or (ii) 1 μg/ml TRAIL for 5 h and then labelled with probe 1. (iii) Un-transfected MCF-7 cells were treated with 1 μM STS for 4 h and then labelled with the probe 1. MCF-7 cells transfected with enhanced green fluorescent protein (EGFP) plasmid treated (iv) with 1 μM STS or (v) without STS for 4 h and then labelled with probe 1, scale bar, 10 a.u. […] Images for GFP and rhodamine fluorescence signals were collected in GFP and FRET channels pre- and post-bleaching of rhodamine signals. (d) Quantification of change in GFP fluorescence intensity after rhodamine photo-bleaching in both unbleached control region and rhodamine bleached region, region of interest (ROI), area under the white square. […]
To rule out that the obtained FRET signal in [FIG. 2b (i)] is not because of random physical interaction between GFPspark and rhodamine dye, MCF-7 cells were transfected with a plasmid encoding for enhanced green fluorescent protein (EGFP). […] The calculated FRET efficiency for (n=15 cells) is 35±1%. […] The calculated FRET efficiency was 35% [FIG. 7(b)]. […]

The target in experiment [2] is T1, caspase-3 GFPspark (Homo sapiens, UniProt P42574).
T1 sequence (P42574 29-175 limits assumed): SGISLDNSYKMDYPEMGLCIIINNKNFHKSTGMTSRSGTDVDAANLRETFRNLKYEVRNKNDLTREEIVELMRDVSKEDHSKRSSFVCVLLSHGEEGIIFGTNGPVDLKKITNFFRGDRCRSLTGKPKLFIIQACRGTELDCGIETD
T1 sequence (P42574 176-277 limits assumed): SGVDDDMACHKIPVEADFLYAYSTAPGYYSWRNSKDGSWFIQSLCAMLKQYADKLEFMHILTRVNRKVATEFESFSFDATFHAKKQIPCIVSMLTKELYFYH
The experiment can be described thus: AbRGT FRET imaging / acceptor photobleaching, caspase-3 GFPspark in HeLa cells. It is filed as cell-based. Set-up: host or cells: HeLa. As to conditions: STS 1 μM 10 h, probe 1 μM.

A further experiment has as its target T2, caspase-3 (Homo sapiens, UniProt P42574).
T2 sequence (P42574 29-175 limits assumed): T1 sequence (P42574 29-175 limits assumed)
T2 sequence (P42574 176-277 limits assumed): T1 sequence (P42574 176-277 limits assumed)
As to conditions: previously shown; cited from earlier work.

Experiment [3] has as its target T1, caspase-3 GFPspark. The experiment can be described thus: AbRGT FRET imaging / acceptor photobleaching, caspase-3 GFPspark in HEK-293 cells. Set-up: host or cells: HEK-293. As to conditions: HEK-293, STS 1 μM 10 h, probe 1 μM. It is filed as cell-based.

As for “Rhodamine-VAD-fluoromethyl ketone [probe 1]”, the “off-target labelling, bands on SDS-PAGE gel upon rhodamine excitation” value in the experiment with Jurkat cell lysate is recorded as “multiple bands”. Also, the “fluorescence signal in FRET channel, EGFP transfected cells” value in experiment [1] is given as “no fluorescence signal was observed”. The “calculated FRET efficiency” value is 32±2% on caspase-3 GFPspark [2]; 32.5±2% and 33±2% on caspase-3 GFPspark [3]. The “rise in GFP intensity in the ROI” value at caspase-3 GFPspark [2] (n=15 cells) is reported as 52±5 a.u; on caspase-3 GFPspark [3], 72 a.u. Further, the “affinity for caspase-3” value at caspase-3 is “moderate affinity”. On caspase-3, the “selectivity for caspase-3” value is listed as “low selectivity”.
